The text below walks through data of patent US12653830B2, “Substituted imidazoquinoxaline compounds and uses thereof” (Impact Therapeutics (Shanghai), Inc, priority 2019, dated 2026).

Where two headings read alike, the source gives them in different places.

Experiment [1] concerns human breast cancer cell MDA-MB-468. Briefly: MTT proliferation assay, MDA-MB-468. The class given is cell-based. The following applies: 7 days, single agent, read-out: IC50, inhibition of proliferation of MDA-MB-468. How it is done:
Determination of the Inhibitory Effect of the Compound of Example 2 and its Analogues on the Proliferation of Human Breast Cancer Cell MDA-MB-468 Using MTT Assay
The human breast cancer cells MDA-MB-468 were cultured in RPMI 1640 medium with 10% FBS and used at 90% confluence. The MDA-IVB-468 cells were digested with trypsinase and centrifuged at 800 rpm for 5 minutes. The supernatant was discarded and the cell pellets were resuspended with fresh medium and counted. Cells were seeded to 96-well cell culture plates with appropriate cell density and incubated overnight at 37° C., 5% CO2. […] 5 μL of solutions of each concentration was added to 120 μL of medium (diluted by 25 times) and mixed by shaking. The culture medium of cells cultured overnight was discarded and replaced with 195 μL/well of fresh medium (RPMI 1640+5% FBS) and 5 μL/well of diluted medium containing the test compound of corresponding concentrations (the final concentration of DMSO was 1%), and the culture plate was then returned to 5% CO2 incubator at 37° C. for 7 days (on the fourth day, dressing was changed once and culture was continued). On the day of experiment, culture medium was discarded and replaced with 100 μL/well of fresh serum-free DMEM medium containing MTT (0.5 mg/mL), and the culture was continued. After 4 hours, medium was discarded and replaced with 100 μL/well of DMSO, the plates were shaken for 10 minutes in darkness and the absorbance was measured at the wavelengths of 552 and 693 nm using a multi-function plate reader. Graph Pad Prism 6.0 was used to analyze the data. The inhibitory effects of compounds on cell proliferation were plotted based on cell viability vs. the logarithm of compound concentration. Cell viability %=(ODcompound−ODbackground)/(ODDMSO−ODbackground)×100.
Table 4 summarizes the inhibitory effect data (IC50) of some compounds on the proliferation of human breast cancer cell MDA-MB-468.

Experiment [2] deals with human colon cancer cell SW620. Briefly: MTT proliferation assay in combination with CPT-11, SW620. The class given is cell-based. The following applies: medium containing 205 nM CPT-11, 5 days, read-out: IC50, inhibition of proliferation of SW620 combined with CPT-11. How it is done: Determination of the Inhibitory Effect of the Compound of Example 2 and its Analogues in Combination with CPT-11 on the Proliferation of Human Colon Cancer Cell SW620 Using MTT Assay
The human colon cancer cells SW620 were cultured in RPMI 1640 medium with 10% FBS and used at about 90% confluence for experiments. The SW620 cells were digested with trypsinase and centrifuged at 800 rpm for 5 minutes. The supernatant was discarded and the cell pellets were resuspended with fresh medium (RPMI 1640+10% FBS). The cells were seeded into 96-well cell culture plates with appropriate cell density and incubated at 37° C. overnight in a 5% CO2 incubator. […] The first concentration was 1 μM or 0.333 μM, the last concentration was DMSO negative control (0 μM). 5 μL of solutions of each concentration was added to 120 μL of medium (a 25 times dilution) and mixed by shaking. The cells were cultured overnight and the culture medium was replaced with 195 μL/well of fresh medium containing 205 nM CPT-11 and 5 μL/well of medium containing the test compound (the final concentration of DMSO was 1%). The culture plates were returned to incubator and cultured at 37° C., 5% CO2 for 5 days. At the day of experiment, medium was discarded and replaced with 100 μL of fresh serum-free DMEM medium containing MTT (0.5 mg/mL), and the culture was continued. 4 hours later, the medium was discarded and replaced with 100 μL/well of DMSO, the plate was shaken for 10 minutes in dark and the absorbance was measured at the wavelengths of 552 and 690 nm using a multi-function plate reader. Data were analyzed by Graph Pad Prism 6.0. The inhibitory effects of compounds on cell proliferation were plotted based on cell viability vs. the logarithm of compound concentration. Cell viability %=(ODcompound−ODbackground)/(ODDMSO−ODbackground)×100.
Table 3 summarizes the inhibitory effect data (IC50) of some compounds combined with CPT-11 on the proliferation of human colon cancer cell SW620.
A general note: Tetrazolium assays rely on reduction of a dye to a coloured formazan, in cell work by metabolically active cells.

For experiment [3], the target named is T1, ATM kinase (Homo sapiens, UniProt Q13315).
T1 construct: purchased Eurofins 14-933
Briefly: In vitro ATM kinase assay (Cisbio HTRF, p53 substrate). It counts as biochemical. The following applies: 30 μM ATP; for inhibition at 0.0001 µM: Conc. 0.1 nM. How it is done: Determination of the Inhibitory Effect In Vitro of the Compound of Example 2 and its Analogues on ATM Using In Vitro ATM Kinase Assay
ATM enzymatic activity was measured using Cisbio's HTRF reagent in a 384-well plate (Greiner, #784075). […] The mixtures were centrifuged at 1000 rpm for 1 minute, and reacted in dark for 30 minutes at room temperature. Then, 5 μL of EDTA termination solution (250 mm) was added to terminate the reaction. After 5 μL of detection mixture (Anti-phospho-p53 (ser15)-K (Cisbio, #61P08KAE, 0.084 ng/μL) and Anti-GST-d2 (Cisbio, #61GSTDLA, 5.00 ng/μL)) was finally added to each well, the mixtures were cultured at room temperature over night, and the fluorescence values at 665 nm and 615 nm were measured on Envision 2104. The final concentration of each reagent of the experiment was as follows: 12.5 mM HEPES (pH8.0), 0.5% glycerol, 0.005% Brij-35, 0.625 mM DTT, 0.0125% BSA, 15 nM p53, 0.25 ng/μL ATM, 30 μM ATP, 2.5 mM Mg(AcO)2, 2.5 mM MnCl2, 62.5 mM EDTA, 0.021 ng/μL Anti-phospho-p53, 1.25 ng/μL Anti-GST-d2.
Relative fluorescence ratio was calculated: Ratio665 nm/615 nm−Ratiobackground, and inhibition rate %=(1−(relative fluorescence ratio of test compound well−relative fluorescence ratio of positive control well)/(relative fluorescence ratio of negative control well−relative fluorescence ratio of positive control well))×100 was calculated. Data were analyzed using GraphPad Prism6.0 and fitted using the curve equation: Y=Bottom+(Top−Bottom)/(1+10^((Log IC50−X)*HillSlope)), and IC50 values were calculated.

The mark [4] stands for this setting: Homo sapiens, MDA-MB-468, 168 h.
Where [5] appears, read: Conc. 1 nM, read-out: Inh % (inhibitory effect on ATM kinase activity).
The mark [6] stands for this setting: read-out: Inh % (inhibitory effect on ATM kinase activity).
The mark [7] stands for this setting: Conc. 10 nM, read-out: Inh % (inhibitory effect on ATM kinase activity).

T1 sequence (Q13315 whole entry): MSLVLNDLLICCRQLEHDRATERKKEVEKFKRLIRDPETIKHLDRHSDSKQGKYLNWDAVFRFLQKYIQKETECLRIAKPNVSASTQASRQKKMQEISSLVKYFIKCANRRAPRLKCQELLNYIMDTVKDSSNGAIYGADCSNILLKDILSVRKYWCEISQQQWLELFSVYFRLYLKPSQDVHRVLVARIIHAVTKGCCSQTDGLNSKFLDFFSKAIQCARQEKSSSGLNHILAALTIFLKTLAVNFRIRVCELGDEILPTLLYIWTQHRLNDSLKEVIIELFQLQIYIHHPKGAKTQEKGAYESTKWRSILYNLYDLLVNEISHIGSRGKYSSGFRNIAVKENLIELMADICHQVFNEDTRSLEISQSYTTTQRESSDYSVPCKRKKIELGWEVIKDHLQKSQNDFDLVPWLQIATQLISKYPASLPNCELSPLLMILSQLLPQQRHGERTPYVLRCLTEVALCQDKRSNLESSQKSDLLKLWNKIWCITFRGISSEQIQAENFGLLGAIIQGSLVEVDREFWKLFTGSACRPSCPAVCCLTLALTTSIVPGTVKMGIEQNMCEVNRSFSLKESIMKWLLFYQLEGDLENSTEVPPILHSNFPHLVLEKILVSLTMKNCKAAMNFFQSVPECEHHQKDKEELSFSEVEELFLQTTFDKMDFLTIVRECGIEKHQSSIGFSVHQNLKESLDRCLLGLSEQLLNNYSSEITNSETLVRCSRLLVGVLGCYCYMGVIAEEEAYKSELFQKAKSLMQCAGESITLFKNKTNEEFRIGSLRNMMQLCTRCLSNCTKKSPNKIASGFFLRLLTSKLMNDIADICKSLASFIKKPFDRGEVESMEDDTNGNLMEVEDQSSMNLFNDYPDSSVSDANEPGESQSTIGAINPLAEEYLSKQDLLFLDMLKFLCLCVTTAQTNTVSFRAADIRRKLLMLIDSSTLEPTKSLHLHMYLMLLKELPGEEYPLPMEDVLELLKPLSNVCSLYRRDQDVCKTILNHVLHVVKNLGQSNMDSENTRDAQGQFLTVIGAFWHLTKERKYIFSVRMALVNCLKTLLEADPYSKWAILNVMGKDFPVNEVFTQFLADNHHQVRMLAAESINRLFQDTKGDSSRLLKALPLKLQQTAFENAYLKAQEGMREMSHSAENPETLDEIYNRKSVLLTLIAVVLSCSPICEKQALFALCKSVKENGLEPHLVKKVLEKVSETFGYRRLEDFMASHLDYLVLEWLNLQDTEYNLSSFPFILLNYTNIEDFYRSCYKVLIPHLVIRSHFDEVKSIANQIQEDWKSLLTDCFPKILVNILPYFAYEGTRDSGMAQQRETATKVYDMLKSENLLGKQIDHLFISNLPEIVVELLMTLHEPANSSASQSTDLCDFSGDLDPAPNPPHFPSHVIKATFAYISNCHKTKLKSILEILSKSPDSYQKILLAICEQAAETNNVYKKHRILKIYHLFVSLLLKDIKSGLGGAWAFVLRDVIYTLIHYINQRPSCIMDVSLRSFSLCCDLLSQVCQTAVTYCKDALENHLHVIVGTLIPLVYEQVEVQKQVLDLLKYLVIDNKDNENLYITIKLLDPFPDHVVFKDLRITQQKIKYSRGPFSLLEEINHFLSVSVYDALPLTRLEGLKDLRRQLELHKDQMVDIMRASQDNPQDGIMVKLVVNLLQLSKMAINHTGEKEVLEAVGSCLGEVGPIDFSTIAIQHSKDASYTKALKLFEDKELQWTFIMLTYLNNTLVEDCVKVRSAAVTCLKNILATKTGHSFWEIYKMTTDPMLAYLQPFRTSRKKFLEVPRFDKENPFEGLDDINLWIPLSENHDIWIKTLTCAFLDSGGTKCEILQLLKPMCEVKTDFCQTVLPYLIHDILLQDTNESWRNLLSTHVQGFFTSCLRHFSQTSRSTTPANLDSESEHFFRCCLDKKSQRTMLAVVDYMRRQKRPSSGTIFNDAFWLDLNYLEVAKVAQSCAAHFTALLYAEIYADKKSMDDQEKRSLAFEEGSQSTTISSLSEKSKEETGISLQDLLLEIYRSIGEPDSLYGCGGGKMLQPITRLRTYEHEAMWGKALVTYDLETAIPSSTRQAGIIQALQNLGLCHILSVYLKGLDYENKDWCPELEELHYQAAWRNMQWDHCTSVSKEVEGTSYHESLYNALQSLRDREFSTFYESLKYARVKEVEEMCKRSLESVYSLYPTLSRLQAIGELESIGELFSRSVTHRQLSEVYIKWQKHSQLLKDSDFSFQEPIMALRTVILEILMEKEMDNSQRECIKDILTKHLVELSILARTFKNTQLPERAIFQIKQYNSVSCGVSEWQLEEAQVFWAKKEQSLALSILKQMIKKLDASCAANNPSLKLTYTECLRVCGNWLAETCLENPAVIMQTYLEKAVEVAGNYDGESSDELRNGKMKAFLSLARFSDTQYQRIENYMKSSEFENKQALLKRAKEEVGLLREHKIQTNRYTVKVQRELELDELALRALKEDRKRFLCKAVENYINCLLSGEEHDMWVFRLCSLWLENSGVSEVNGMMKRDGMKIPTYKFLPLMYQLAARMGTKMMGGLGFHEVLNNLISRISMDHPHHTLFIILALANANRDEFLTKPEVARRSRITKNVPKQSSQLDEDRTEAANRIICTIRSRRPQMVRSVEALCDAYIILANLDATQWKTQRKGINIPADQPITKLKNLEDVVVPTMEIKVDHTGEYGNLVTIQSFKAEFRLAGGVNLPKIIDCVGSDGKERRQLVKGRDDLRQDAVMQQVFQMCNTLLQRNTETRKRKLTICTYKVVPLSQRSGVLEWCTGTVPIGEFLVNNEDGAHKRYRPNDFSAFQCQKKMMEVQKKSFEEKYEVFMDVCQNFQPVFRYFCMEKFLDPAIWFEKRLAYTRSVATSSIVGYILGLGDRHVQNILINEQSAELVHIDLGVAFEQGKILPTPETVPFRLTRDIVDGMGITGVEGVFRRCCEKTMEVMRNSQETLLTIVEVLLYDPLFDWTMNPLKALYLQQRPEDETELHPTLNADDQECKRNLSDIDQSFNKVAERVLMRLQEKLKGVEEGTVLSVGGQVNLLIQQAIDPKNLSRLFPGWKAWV

For `Cc1nc(C(C)C)n2c1cnc1ccc(-c3ccc(N4CCC(N(C)C)CC4)c(C(F)(F)F)c3)cc12` [Example 26, N,N-dimethyl-1-(4-(1-isopropyl-3-methylimidazo[1,5-a]quinoxalin-8-yl)-2-(trifluoromethyl)phenyl)piperidin-4-amine], the figures for the IC50 in experiment [1] (setting [4]) and in experiment [2] were 0.0486 µM and 0.051 µM, respectively. In experiment [3] (setting [5]), the inhibition at 0.001 µM was determined as 54%.

Turning to `CCc1nc(N2C[C@@H](C)O[C@@H](C)C2)n2c1cnc1ccc(-c3ccc(OCCCN(C)C)nc3)cc12` [Example 41, 3-((5-(1-((2S,6R)-2,6-dimethylmorpholino)-3-ethylimidazo[1,5-a]quinoxalin-8-yl)pyridin-2-yl)oxy)-N,N-dimethylpropan-1-amine], the IC50 in experiment [1] (setting [4]) worked out at 0.0426 µM; in experiment [2] (Homo sapiens, SW-620, 120 h), 0.0543 µM; in experiment [3], 0.00015 µM.

In the case of `CNC1CCN(c2ccc(-c3ccc4ncc5c(C)nc(C6CCOCC6)n5c4c3)cc2C(F)(F)F)CC1` [Example 10, N-methyl-1-(4-(3-methyl-1-(tetrahydro-2H-pyran-4-yl)imidazo[1,5-a]quinoxalin-8-yl)-2-(trifluoromethyl)phenyl)piperidin-4-amine], the results for the IC50 in experiment [1] (setting [4]) and in experiment [2] were 0.0164 µM and 0.0167 µM, respectively. Further, the inhibition at 0.0001 µM in experiment [3] (setting [6]) worked out at 13%. Further, in experiment [3] (setting [5]), the inhibition at 0.001 µM amounted to 74%. Further, the inhibition at 0.01 µM in experiment [3] (setting [7]) was 99%.

With `Cc1nc(C2CCOCC2)n2c1cnc1ccc(-c3ccc(N4CCC(N)CC4)c(C(F)(F)F)c3)cc12` [Example 9, 1-(4-(3-methyl-1-(tetrahydro-2H-pyran-4-yl)imidazo[1,5-a]quinoxalin-8-yl)-2-(trifluoromethyl)phenyl)piperidin-4-amine], the IC50 in experiment [1] (setting [4]) worked out at 0.0231 µM; in experiment [2], 0.024 µM. In addition, in experiment [3] (setting [6]), the inhibition at 0.0001 µM stood at 28%. For the same molecule, the inhibition at 0.001 µM in experiment [3] (setting [5]) turned out to be 96%. In addition, the inhibition at 0.01 µM in experiment [3] (setting [7]) came to 99%.

`Cc1nc(N2C[C@@H](C)O[C@@H](C)C2)n2c1cnc1ccc(-c3ccc(OCCCN4CCCC4)nc3)cc12` [Example 32, (2S,6R)-2,6-dimethyl-4-(3-methyl-8-(6-(3-(pyrrolidin-1-yl)propoxy)pyridin-3-yl)imidazo[1,5-a]quinoxalin-1-yl)morpholine]: the IC50 in experiment [1] (setting [4]) came out at 0.0076 µM; in experiment [2] (Homo sapiens, SW-620, 120 h) it was 0.0092 µM; in experiment [3], 0.0001 µM.

Regarding `Cc1nc(C2CCOCC2)n2c1cnc1ccc(-c3ccc(N4CCC(N(C)C)CC4)c(F)c3)cc12` [Example 6, N,N-dimethyl-1-(2-fluoro-4-(3-methyl-1-(tetrahydro-2H-pyran-4-yl)imidazo[1,5-a]quinoxalin-8-yl)phenyl)piperidin-4-amine], the IC50 is 0.0116 µM in experiment [1] (setting [4]) and 0.0126 µM in experiment [2]. In experiment [3] (setting [6]), the inhibition at 0.0001 µM is 33%. Further, in experiment [3] (setting [5]), the inhibition at 0.001 µM was found to be 93%. The inhibition at 0.01 µM in experiment [3] (setting [7]) is 99%.

On to `Cc1nc(C2CCOCC2)n2c1cnc1ccc(-c3ccc(OCCCN(C)C)c(F)c3)cc12` [Example 4, N,N-dimethyl-3-(2-fluoro-4-(3-methyl-1-(tetrahydro-2H-pyran-4-yl)imidazo[1,5-a]quinoxalin-8-yl)phenoxy)propan-1-amine], for which the IC50 in experiment [1] (setting [4]) came to 0.0389 µM; in experiment [2] it was 0.0411 µM. The inhibition at 0.01 µM in experiment [3] (setting [7]) turned out to be 97%.

Turning to `Cc1nc(C2CCOCC2)n2c1cnc1ccc(-c3ccc(OCCCN(C)C)nc3)cc12` [Example 2, N,N-dimethyl-3-((5-(3-methyl-1-(tetrahydro-2H-pyran-4-yl)imidazo[1,5-a]quinoxalin-8-yl)pyridin-2-yl)oxy)propan-1-amine], the IC50 in experiment [1] (setting [4]) is 0.0188 µM; in experiment [2] it was 0.0192 µM. Moreover, the inhibition at 0.0001 µM in experiment [3] (setting [6]) came out at 45%. Also, in experiment [3] (setting [5]), the inhibition at 0.001 µM turned out to be 59%. The inhibition at 0.01 µM in experiment [3] (setting [7]) is 96%.

Turning to `Cc1nc(N2C[C@@H](C)O[C@@H](C)C2)n2c1cnc1ccc(-c3ccc(OCCCN(C)C)c(C(F)(F)F)c3)cc12` [Example 37], the IC50 in experiment [1] (setting [4]) is 0.0249 µM; in experiment [2], 0.0176 µM. Also, the inhibition at 0.0001 µM in experiment [3] (setting [6]) was 12%. Further, in experiment [3] (setting [5]), the inhibition at 0.001 µM turned out to be 66%. Also, in experiment [3] (setting [7]), the inhibition at 0.01 µM is 100%.

On to `CN(C)CCCOc1ccc(-c2ccc3ncc4cnc(C5CCOCC5)n4c3c2)cc1` [Example 1, N,N-dimethyl-3-(4-(1-(tetrahydro-2H-pyran-4-yl)imidazo[1,5-a]quinoxalin-8-yl)phenoxy)propan-1-amine], for which the IC50 in experiment [1] (setting [4]) was found to be 0.103 µM; in experiment [2] it was 0.123 µM. Further, in experiment [3] (setting [5]), the inhibition at 0.001 µM was 25%. Moreover, in experiment [3] (setting [7]), the inhibition at 0.01 µM was determined as 71%. In addition, in experiment [3] (Conc. 100 nM, read-out: Inh % (inhibitory effect on ATM kinase activity)), the inhibition at 0.1 µM came to 96%.

As for `CN(C)CCCOc1ccc(-c2ccc3ncc4c(c3c2)n(C2CCOCC2)c(=O)n4C)cn1` [AZD0156, reference compound], the IC50 in experiment [1] came to 0.00987 µM; in experiment [2] it was 0.0098 µM. Besides, the “Inh % (inhibitory effect on ATM kinase activity)” value was 90% in experiment [3] (Conc. 1 nM), 95% in experiment [3] (Conc. 10 nM) and 100% in experiment [3] (Conc. 100 nM).

Consider `Cc1nc(N2CCN(C)CC2)n2c1cnc1ccc(-c3ccc(OCCCN(C)C)nc3)cc12` [Example 17, N,N-dimethyl-3-((5-(3-methyl-1-(4-methylpiperazin-1-yl)imidazo[1,5-a]quinoxalin-8-yl)pyridin-2-yl)oxy)propan-1-amine], for which the IC50 in experiment [1] (setting [4]) was found to be 0.0209 µM; in experiment [2], 0.0274 µM. Moreover, in experiment [3] (setting [6]), the inhibition at 0.0001 µM is 9%. Further, the inhibition at 0.001 µM in experiment [3] (setting [5]) turned out to be 55%. For the same molecule, the inhibition at 0.01 µM in experiment [3] (setting [7]) was 91%.
